According to PubChem BioAssay (NCI):
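These data come from cells grown in 96-well plates and exposed to compound for 48 hours at five concentrations. GI50 = concentration required for 50% inhibition of growth. TGI marks complete inhibition of growth.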

What was measured:
Assay in all cases: NCI anticancer screen, dose series, 48 h
SK-MEL-5 melanoma = tested on: SK-MEL-5 melanoma
MOLT-4 leukemia = tested on: MOLT-4 leukemia
SF-539 CNS = tested on: SF-539 CNS
ACHN renal = tested on: ACHN renal
NCI-H460 lung = tested on: NCI-H460 lung
KM12 colon = tested on: KM12 colon
A498 renal = tested on: A498 renal
COLO 205 colon = tested on: COLO 205 colon
OVCAR-3 ovarian = tested on: OVCAR-3 ovarian
SW-620 colon = tested on: SW-620 colon
HCT-116 colon = tested on: HCT-116 colon
T-47D breast = tested on: T-47D breast
K-562 leukemia = tested on: K-562 leukemia
HS 578T breast = tested on: HS 578T breast
NCI-H23 lung = tested on: NCI-H23 lung
SK-OV-3 ovarian = tested on: SK-OV-3 ovarian
HCT-15 colon = tested on: HCT-15 colon
OVCAR-8 ovarian = tested on: OVCAR-8 ovarian
SF-268 CNS = tested on: SF-268 CNS
SNB-19 CNS = tested on: SNB-19 CNS
M14 melanoma = tested on: M14 melanoma
MALME-3M melanoma = tested on: MALME-3M melanoma
DU-145 prostate = tested on: DU-145 prostate
HT29 colon = tested on: HT29 colon
EKVX NSCLC = tested on: EKVX NSCLC
SK-MEL-28 melanoma = tested on: SK-MEL-28 melanoma
MCF7 breast = tested on: MCF7 breast
CCRF-CEM leukemia = tested on: CCRF-CEM leukemia
CAKI-1 renal = tested on: CAKI-1 renal
SR leukemia = tested on: SR leukemia
NCI-H522 lung = tested on: NCI-H522 lung
MDA-MB-435 = tested on: MDA-MB-435
SN12C renal = tested on: SN12C renal
A549 NSCLC = tested on: A549 NSCLC
U251 CNS = tested on: U251 CNS
PC-3 prostate = tested on: PC-3 prostate
OVCAR-4 ovarian = tested on: OVCAR-4 ovarian
RPMI-8226 leukemia = tested on: RPMI-8226 leukemia
LOX IMVI melanoma = tested on: LOX IMVI melanoma
IGROV1 ovarian = tested on: IGROV1 ovarian
HOP-62 NSCLC = tested on: HOP-62 NSCLC
NCI-H226 lung = tested on: NCI-H226 lung
TK-10 renal = tested on: TK-10 renal
BT-549 breast = tested on: BT-549 breast
SF-295 CNS = tested on: SF-295 CNS
NCI/ADR-RES ovarian = tested on: NCI/ADR-RES ovarian
RXF 393 renal = tested on: RXF 393 renal
UO-31 renal = tested on: UO-31 renal
SNB-75 CNS = tested on: SNB-75 CNS
HL-60(TB) leukemia = tested on: HL-60(TB) leukemia
HCC-2998 colon = tested on: HCC-2998 colon
MDA-MB-231 breast = tested on: MDA-MB-231 breast
UACC-62 melanoma = tested on: UACC-62 melanoma
SK-MEL-2 melanoma = tested on: SK-MEL-2 melanoma
786-0 renal = tested on: 786-0 renal
UACC-257 melanoma = tested on: UACC-257 melanoma

## COc1ccc(C(=O)/C=C/c2c(C(F)(F)F)nc3ccccn23)cc1OC
SK-MEL-5 melanoma
  GI50: 2100 nM
  TGI: 20100 nM
MOLT-4 leukemia
  GI50: 711 nM
  TGI: 3240 nM
SF-539 CNS
  GI50: 2140 nM
ACHN renal
  GI50: 2600 nM
  TGI: > 39500 nM
NCI-H460 lung
  GI50: 933 nM
  TGI: 2990 nM
KM12 colon
  GI50: 646 nM
  TGI: 7420 nM
A498 renal
  GI50: 3460 nM
  TGI: 21700 nM
COLO 205 colon
  GI50: 1860 nM
  TGI: 3950 nM
OVCAR-3 ovarian
  GI50: 2280 nM
  TGI: 6090 nM
SW-620 colon
  GI50: 527 nM
  TGI: > 100000 nM
HCT-116 colon
  GI50: 561 nM
  TGI: 4260 nM
T-47D breast
  GI50: 1780 nM
  TGI: 6210 nM
K-562 leukemia
  GI50: 377 nM
  TGI: > 100000 nM
HS 578T breast
  GI50: 2310 nM
  TGI: > 100000 nM
NCI-H23 lung
  GI50: 1660 nM
  TGI: > 26900 nM
SK-OV-3 ovarian
  GI50: 2380 nM
  TGI: 6130 nM
HCT-15 colon
  GI50: 1570 nM
  TGI: > 100000 nM
OVCAR-8 ovarian
  GI50: 1060 nM
  TGI: > 25100 nM
SF-268 CNS
  GI50: 2070 nM
  TGI: > 24700 nM
SNB-19 CNS
  GI50: 3770 nM
  TGI: > 22000 nM
M14 melanoma
  GI50: 2220 nM
  TGI: > 66700 nM
MALME-3M melanoma
  GI50: 13800 nM
  TGI: > 100000 nM
DU-145 prostate
  GI50: 1300 nM
HT29 colon
  GI50: 786 nM
EKVX NSCLC
  GI50: 3390 nM
  TGI: > 100000 nM
SK-MEL-28 melanoma
  GI50: 7100 nM
  TGI: > 100000 nM
MCF7 breast
  GI50: 518 nM
  TGI: > 100000 nM
CCRF-CEM leukemia
  GI50: 460 nM
  TGI: 22100 nM
CAKI-1 renal
  GI50: 1710 nM
  TGI: > 24500 nM
SR leukemia
  GI50: 272 nM
  TGI: 964 nM
NCI-H522 lung
  GI50: 133 nM
  TGI: 929 nM
MDA-MB-435
  GI50: 1150 nM
  TGI: > 100000 nM
SN12C renal
  GI50: 3530 nM
  TGI: > 100000 nM
A549 NSCLC
  GI50: 3380 nM
  TGI: > 100000 nM
U251 CNS
  GI50: 1100 nM
  TGI: > 100000 nM
PC-3 prostate
  GI50: 2730 nM
  TGI: > 100000 nM
OVCAR-4 ovarian
  GI50: 3280 nM
  TGI: > 48600 nM
RPMI-8226 leukemia
  GI50: 362 nM
  TGI: 1670 nM
LOX IMVI melanoma
  GI50: 584 nM
IGROV1 ovarian
  GI50: 508 nM
  TGI: 3410 nM
HOP-62 NSCLC
  GI50: 3380 nM
  TGI: > 28400 nM
NCI-H226 lung
  GI50: 3970 nM
  TGI: > 100000 nM
TK-10 renal
  GI50: 2070 nM
  TGI: > 20600 nM
BT-549 breast
  GI50: 2340 nM
  TGI: 43400 nM
SF-295 CNS
  GI50: 3150 nM
  TGI: 42500 nM
NCI/ADR-RES ovarian
  GI50: 877 nM
  TGI: 6250 nM
RXF 393 renal
  GI50: 1970 nM
  TGI: 8680 nM
UO-31 renal
  GI50: 1620 nM
  TGI: 29500 nM
SNB-75 CNS
  GI50: 2010 nM
  TGI: 6770 nM
HL-60(TB) leukemia
  GI50: 758 nM
  TGI: 2640 nM
HCC-2998 colon
  GI50: 553 nM
  TGI: 2230 nM
MDA-MB-231 breast
  GI50: 3060 nM
  TGI: 8550 nM
UACC-62 melanoma
  TGI: > 100000 nM
SK-MEL-2 melanoma
  GI50: 1720 nM
  TGI: 5090 nM
786-0 renal
  GI50: 2260 nM
  TGI: > 100000 nM
UACC-257 melanoma
  GI50: 2430 nM
  TGI: > 100000 nM
